| melting point [°C] | SMILES |
| --- | --- |
| 183 to 186 | CN1CCC(N(C)S(=O)(=O)c2ccc(Nc3nccc(Nc4ccc(F)c(Cl)c4)n3)cc2)CC1 [Example 12, 4-[4-(3-Chloro-4-fluorophenylamino)pyrimidin-2-ylamino]-N-methyl-N-(1-methylpiperidin-4-yl)benzenesulfonamide] |
| 175 to 176 | CN(C1CCN(Cc2cccs2)CC1)S(=O)(=O)c1ccc(Nc2nccc(Nc3ccc(F)cc3)n2)cc1 [Example 13, 4-[4-(4-Fluorophenylamino)pyrimidin-2-ylamino]-N-methyl-N-(1-thiophen-2-ylmethylpiperidin-4-yl)benzenesulfonamide] |
| 173 to 174 | CN(C1CCN(Cc2ccsc2)CC1)S(=O)(=O)c1ccc(Nc2nccc(Nc3ccc(F)cc3)n2)cc1 [Example 16, 4-[4-(4-Fluorophenylamino)pyrimidin-2-ylamino]-N-methyl-N-(1-thiophen-3-ylmethylpiperidin-4-yl)benzenesulfonamide] |
| 155 to 156 | CN(C1CCN(Cc2cc[n+]([O-])cc2)CC1)S(=O)(=O)c1ccc(Nc2nccc(Nc3ccc(F)cc3)n2)cc1 [Example 29, 4-[4-(4-Fluorophenylamino)pyrimidin-2-ylamino]-N-[1-(1-N-oxidepyridin-4-ylmethyl)piperidin-4-yl]-N-methylbenzenesulfonamide] |
| 155 | Cc1ncc(CN2CCC(N(C)S(=O)(=O)c3ccc(Nc4nccc(Nc5ccc(F)cc5)n4)cc3)CC2)[nH]1 [Example 30, 4-[4-(4-Fluorophenylamino)pyrimidin-2-ylamino]-N-methyl-N-[1-(2-methyl-3H-imidazol-4-ylmethyl)piperidin-4-yl]benzenesulfonamide] |
| 182 to 183 | CN(C1CCN(Cc2ccccc2F)CC1)S(=O)(=O)c1ccc(Nc2nccc(Nc3ccc(F)cc3)n2)cc1 [Example 31, N-[1-(2-Fluorobenzyl)piperidin-4-yl]-4-[4-(4-fluorophenylamino)pyrimidin-2-ylamino]-N-methyl-benzenesulfonamide] |
| 207 | CN(C1CCN(Cc2cccc(F)c2)CC1)S(=O)(=O)c1ccc(Nc2nccc(Nc3ccc(F)cc3)n2)cc1 [Example 32, N-[1-(3-Fluorobenzyl)piperidin-4-yl]-4-[4-(4-fluorophenylamino)pyrimidin-2-ylamino]-N-methyl-benzenesulfonamide] |
| 129 to 131 | CN(C1CCN(Cc2ccc(F)cc2)CC1)S(=O)(=O)c1ccc(Nc2nccc(Nc3ccc(F)cc3)n2)cc1 [Example 33, N-[1-(4-Fluorobenzyl)piperidin-4-yl]-4-[4-(4-fluorophenylamino)pyrimidin-2-ylamino]-N-methyl-benzenesulfonamide] |
| 202 to 203 | CC(C)N1CCC(N(C)S(=O)(=O)c2ccc(Nc3nccc(Nc4ccc(F)cc4)n3)cc2)CC1 [Example 37, 4-[4-(4-Fluorophenylamino)pyrimidin-2-yl-amino]-N-(1-isopropylpiperidin-4-yl)-N-methylbenzene-sulfonamide] |
| 194 to 195 | CC(C)CN1CCC(N(C)S(=O)(=O)c2ccc(Nc3nccc(Nc4ccc(F)cc4)n3)cc2)CC1 [Example 38, 4-[4-(4-Fluorophenylamino)pyrimidin-2-yl-amino]-N-(1-isobutylpiperidin-4-yl)-N-methylbenzene-sulfonamide] |
| 184 to 185 | CC(C)CCN1CCC(N(C)S(=O)(=O)c2ccc(Nc3nccc(Nc4ccc(F)cc4)n3)cc2)CC1 [Example 39, 4-[4-(4-Fluorophenylamino)pyrimidin-2-yl-amino]-N-methyl-N-[1-(3-methylbutyl)piperidin-4-yl]-benzenesulfonamide] |
| 216 to 217 | CN(C1CCN(CC(C)(C)O)CC1)S(=O)(=O)c1ccc(Nc2nccc(Nc3ccc(F)cc3)n2)cc1 [Example 49, 4-[4-(4-Fluorophenylamino)pyrimidin-2-yl-amino]-N-[1-(2-hydroxy-2-methylpropyl)piperidin-4-yl]-N-methylbenzenesulfonamide] |
| 110 to 120 | Cc1cc(Nc2ccnc(Nc3ccc(S(=O)(=O)N(C)C4CCN(C)CC4)cc3)n2)ccc1F [Example 86, 4-({4-[(4-fluoro-3-methylphenyl)amino]-pyrimidin-2-yl}amino)-N-methyl-N-(1-methylpiperidin-4-yl)benzenesulfonamide] |
| 192 | CN(C1CCN(CCCC(F)(F)F)CC1)S(=O)(=O)c1ccc(Nc2nccc(Nc3ccc(F)c(F)c3)n2)cc1 [Example 108, 4-({4-[(3,4-Difluorophenyl)amino]pyrimidin-2-yl}amino)-N-methyl-N-[1-(4,4,4-trifluorobutyl)-piperidin-4-yl]benzenesulfonamide] |
| 202 to 203 | CN(C1CCN(CCC(F)(F)F)CC1)S(=O)(=O)c1ccc(Nc2nccc(Nc3ccc(F)c(F)c3)n2)cc1 [Example 109, 4-({4-[(3,4-Difluorophenyl)amino]pyrimidin-2-yl}amino)-N-methyl-N-[1-(3,3,3-trifluoro-propyl)piperidin-4-yl]benzenesulfonamide] |
| 159 to 160 | Cc1cc(Nc2ccnc(Nc3ccc(S(=O)(=O)N(C)C4CCN(Cc5cccn5C)CC4)cc3)n2)ccc1F [Example 110, 4-({4-[(4-Fluoro-3-methylphenyl)amino]-pyrimidin-2-yl}amino)-N-methyl-N-{1-[(1-methyl-1H-pyrrol-2-yl)methyl]piperidin-4-yl}benzenesulfonamide] |

The remaining lines, values behind:

| SMILES | melting point [°C] |
| --- | --- |
| CN1CCC(N(C2CC2)S(=O)(=O)c2ccc(Nc3nccc(Nc4ccc(F)cc4)n3)cc2)CC1 [Example 14, N-Cyclopropyl-4-[4-(4-fluorophenylamino)-pyrimidin-2-ylamino]-N-(1-methylpiperidin-4-yl)benzene-sulfonamide] | 218 |
| CCN(C1CCN(Cc2ccccc2)C1)S(=O)(=O)c1ccc(Nc2nccc(Nc3ccc(F)cc3)n2)cc1 (stereo not drawn) [Example 15, N-(1-Benzylpyrrolidin-3-yl)-4-[4-(4-fluoro-phenylamino)pyrimidin-2-ylamino]-N-ethylbenzene-sulfonamide] | 125 to 127 |
| CN(C)CCN(C1CCN(C)CC1)S(=O)(=O)c1ccc(Nc2nccc(Nc3ccc(F)cc3)n2)cc1 [Example 18, N-(2-Dimethylaminoethyl)-4-[4-(4-fluoro-phenylamino)pyrimidin-2-ylamino]-N-(1-methylpiperidin-4-yl)benzenesulfonamide] | 135 to 137 |
| CN1CCC(N(CCO)S(=O)(=O)c2ccc(Nc3nccc(Nc4ccc(F)cc4)n3)cc2)CC1 [Example 19, 4-[4-(4-Fluorophenylamino)pyrimidin-2-ylamino]-N-(2-hydroxyethyl)-N-(1-methylpiperidin-4-yl)-benzenesulfonamide] | 125 to 135 |
| CN1CCC(N(C)S(=O)(=O)c2ccc(Nc3nc(Cl)cc(Nc4ccc(F)cc4)n3)cc2)CC1 [Example 20, 4-[4-Chloro-6-(4-fluorophenylamino)pyrimidin-2-ylamino]-N-methyl-N-(1-methylpiperidin-4-yl)benzenesulfonamide] | 140 to 142 |
| CN1CCC(N(C)C(=O)CNS(=O)(=O)c2ccc(Nc3nccc(Nc4ccc(F)cc4)n3)cc2)CC1 [Example 25, 2-{4-[4-(4-Fluorophenylamino)pyrimidin-2-ylamino]benzenesulfonylamino}-N-methyl-N-(1-methyl-piperidin-4-yl)acetamide] | 233 to 234.4 |
| CN(C1CCN(CCCC(F)(F)F)CC1)S(=O)(=O)c1ccc(Nc2nccc(Nc3ccc(F)cc3)n2)cc1 [Example 40, 4-[4-(4-Fluorophenylamino)pyrimidin-2-yl-amino]-N-methyl-N-[1-(4,4,4-trifluorobutyl)piperidin-4-yl]benzenesulfonamide] | 166 to 167 |
| Cc1cc(Nc2ccnc(Nc3ccc(S(=O)(=O)N(CCN)C4CCNCC4)cc3)n2)ccc1F [Example 48, N-(2-Aminoethyl)-4-[4-(4-fluoro-3-methyl-phenylamino)pyrimidin-2-ylamino]-N-piperidin-4-yl-benzenesulfonamide] | 242 to 244 |
| Cc1cc(Nc2ccnc(Nc3ccc(S(=O)(=O)N(CCN4CCCC4)C4CCN(C)CC4)cc3)n2)ccc1F [Example 87, 4-({4-[(4-Fluoro-3-methylphenyl)amino]-pyrimidin-2-yl}amino)-N-(1-methylpiperidin-4-yl)-N-(2-pyrrolidin-1-ylethyl)benzenesulfonamide] | 93 to 103 |
| CN1CCC(N(CCN2CCCC2)S(=O)(=O)c2ccc(Nc3nccc(Nc4ccc(F)cc4)n3)cc2)CC1 [Example 89, 4-({4-[(4-Fluorophenyl)amino]pyrimidin-2-yl}amino)-N-(1-methylpiperidin-4-yl)-N-(2-pyrrolidin-1-ylethyl)benzenesulfonamide] | 250 |
| CC(C)(O)CNCCN(C1CCNCC1)S(=O)(=O)c1ccc(Nc2nccc(Nc3ccc(F)cc3)n2)cc1 [Example 102, 4-({4-[(4-Fluorophenyl)amino]pyrimidin-2-yl}amino)-N-{2-[(2-hydroxy-2-methylpropyl)amino]ethyl}-N-piperidin-4-ylbenzenesulfonamide] | 120 |
| O=S(=O)(c1ccc(Nc2nccc(Nc3ccc(F)cc3)n2)cc1)N(CCNCC(F)(F)F)C1CCN(Cc2ccccc2)CC1 [Example 103, N-(1-Benzylpiperidin-4-yl)-4-({4-[(4-fluorophenyl)amino]pyrimidin-2-yl}amino)-N-{2-[(2,2,2-trifluoroethyl)amino]ethyl}benzenesulfonamide] | 137 to 138 |
| CCN1CC(N(CCN2CCCC2)S(=O)(=O)c2ccc(Nc3nccc(Nc4ccc(F)c(C)c4)n3)cc2)C1 [Example 104, N-(1-Ethylazetidin-3-yl)-4-({4-[(4-fluoro-3-methylphenyl)amino]pyrimidin-2-yl}amino)-N-(2-pyrrolidin-1-ylethyl)benzenesulfonamide] | 195 |
| CN(C1CCN(CCC(F)(F)F)CC1)S(=O)(=O)c1ccc(Nc2nccc(Nc3ccc(F)cc3)n2)cc1 [Example 107, 4-({4-[(4-Fluorophenyl)amino]pyrimidin-2-yl}amino)-N-methyl-N-[1-(3,3,3-trifluoropropyl)piperidin-4-yl]benzenesulfonamide] | 195 to 196 |
